Data set [1] concerns proteases secreted by A. baumannii ATCC 19606. Put plainly: in vitro. The note with it: Acinetobacter baumannii, A. baumannii ATCC 19606 culture supernatant, pH 8. Put shortly:
(§1)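 Cell-free culture supernatants (overnight, 37°C; MH broth for bacteria, 2% tryptone/2% dextrose for yeast) were centrifuged, adjusted to pH 8.0 and 0.22 μm filtered. Peptides at 0.5 mg/mL were incubated in supernatant 24 h at 37°C; remaining intact peptide measured by RP-HPLC, with peptide-free supernatant as negative control.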

Data set [2] concerns proteases secreted by C. albicans ATCC 10231. Put plainly: in vitro. The following applies: C. albicans ATCC 10231 culture supernatant (2% tryptone/2% dextrose), pH 8.0, 0.22 μm filtered; peptide 0.5 mg/mL; 37°C, 24 h; RP-HPLC. Put shortly: as §1
In data set [3] the test system is proteases secreted by P. aeruginosa ATCC 27853. Put plainly: in vitro. The following applies: Pseudomonas aeruginosa, P. aeruginosa ATCC 27853 culture supernatant, pH 8. The method in brief: as §1
Another data set concerns human erythrocytes. Put plainly: Hemolytic activity assay. It counts as cell-based. The note with it: human RBC in PB, 37°C, 1 h, OD420, total lysis control 0.1% SDS, three technical replicates. The method in brief:
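Washed RBCs from a healthy volunteer were incubated with peptides at 32–128 μM for 1 h at 37°C in PB. Hemoglobin release into the supernatant was read as OD420 against total lysis with 0.1% SDS, in three technical replicates.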

Data set [4] concerns human plasma proteases.
Experimental: (§2) The peptides were mixed with plasma from healthy volunteers to a final concentration of 0.1 mg/mL and incubated at 37°C. Aliquots (20 or 40 μL) were removed after 0, 2, 4, 6, 8, 12, 24, and 36 h, mixed with 0.05% TFA to a final concentration of 0.01 mg/mL, and incubated on ice for 10 min. After centrifugation (12,000 × g, 5 min), the supernatant was stored at −20°C. The samples were analyzed as described in section “Hydrophobicity” and quantified as described in section “Stability Toward Tryptic Degradation.” All stability tests were performed at least in triplicate. The identities of the metabolites after 12 h of degradation by plasma proteases were determined by LC-MS on a Waters Acquity UPLC-QDa system.
For data set [5], the system named is human plasma proteases. Put plainly: in vitro.
Experimental: as §2
The nature of data set [6]: Circular dichroism spectroscopy, secondary structure. It counts as physicochemical. The following applies: 0.1 mg/mL, 25°C; for [θ]222: average of three scans; for %α-helix: from [θ]222. How it is done: The secondary structures of Pep05 and its derivatives were investigated using a Chirascan qCD Spectrometer (Applied Photophysics, United Kingdom). The peptides were dissolved to a final concentration of 0.1 mg/mL in four different solvents, namely, 10 mM phosphate buffer (PB; pH 7.4), 50% TFE/PB, 25 mM SDS in PB, and 0.1% LPS in PB ([Kim et al., 2017]). Circular dichroism (CD) spectra were recorded from 260 to 190 nm at 25°C as the average of three scans. Data were collected using a path length of 0.1 cm, scan speed of 50 nm/min, bandwidth of 1.0 nm, response time of 1 s, and resolution of 0.1 nm ([Khara et al., 2016]). Following background subtraction, the observed ellipticity [θ]obs (mdeg) was converted to molar ellipticity [θ] (deg⋅cm^2⋅dmol^–1) using the equation [θ] = [θ]obs(MRW/10cl), where [θ]obs is the observed ellipticity corrected for the blank at a given wavelength (mdeg), MRW is the mean residue molecular weight (molecular weight/number of amino acids), c is the peptide concentration (mg/mL), and l is the path length (cm). Assuming a two-state model, the percentage of α-helix structure was calculated using the following equation: α-helical content = −([θ]222 + 2000)/30000 × 100% ([Jia et al., 2017]).
The influence of the amino acid substitutions on the peptide secondary structure was investigated using CD spectroscopy under different conditions, including 10 mM PB at pH 7.4 (mimicking an aqueous environment), 50% TFE (mimicking a hydrophobic bacterial membrane environment), 25 mM SDS (mimicking a negatively charged bacterial membrane environment), and 0.1% LPS (mimicking a bacterial outer membrane environment).
Background: Circular dichroism is widely used to follow secondary structure.

The next data set deals with P. aeruginosa ATCC 9027. Put plainly: In vivo antibacterial activity, lethal intraperitoneal infection. The note with it: BALB/c mice, lethal i.p. dose of P. aeruginosa ATCC 9027, 10 mg/kg i.p. at 1 and 8 h post-infection, n = 10. How it is done: The in vivo antibacterial activities of the peptides were evaluated in BALB/c mice using P. aeruginosa ATCC 9027 as a test strain. A total of 20 mice (6 weeks old, approximate weight: 18–20 g, SFP grade) were first used to measure the minimal lethal doses (MLD) with 5 mice for each inoculum. Cell numbers of selected strains were determined from the colony numbers from the plate count agar and four inocula (1 × 10^6, 5 × 10^6, 1 × 10^7, and 5 × 10^7 CFU/mouse) were administered via intraperitoneal injection. The minimal lethal dose was determined by measuring the mortality rate after 72 h. BALB/c mice were then injected intraperitoneally with a lethal dose of P. aeruginosa ATCC 9027. […] Colistin (10 mg/kg) was used as a positive control. The survival of the animals was monitored over 7 d.

Where a SMILES comes first, the peptide text is derived from it. [ ]: non-standard residue; d: D form. 2Thi = N[C@@H](Cc1cccs1)C(=O)O; Aib = CC(C)(N)C(=O)O Some results are limits rather than exact numbers.

As a reminder, the share remaining is what is left of the initial amount, in per cent. Low values mean more turnover, high ones less turnover. As for `CC(C)C[C@H](NC(=O)[C@H](CC(C)C)NC(=O)[C@@H](CCCCN)NC(=O)[C@@H](CCCCN)NC(=O)[C@H](Cc1ccccc1)NC(=O)[C@H](CC(C)C)NC(=O)[C@@H](CCCNC(=N)N)NC(=O)[C@H](N)CCCCN)C(=O)N[C@H](CCCCN)C(=O)N[C@@H](Cc1ccc(O)cc1)C(=O)N[C@@H](CC(C)C)C(=O)N[C@H](CCCNC(=N)N)C(=O)N[C@H](CCCCN)C(=O)N[C@@H](Cc1ccccc1)C(N)=O` [DP06] (H-[dK][dR]LF[dK][dK]LL[dK]YL[dR][dK]F-NH2), the amount remaining at 24 h, 0.5 mg/mL in data set [1] is 63.5 ± 3.28%; in data set [3], 61.2 ± 6.06%. The “Percent of remained peptide amount after incubation (%)” value in data set [2] is reported as 62.07 ± 3.27 %. In addition, the “Hemolysis rate (%)” value in the data set with human erythrocytes (64 μM) is reported as 37.14 ± 2.73%; in the data set on human erythrocytes (128 μM), 59.99 ± 2.41%. Besides, the “degradation products by plasma proteases (LC-MS)” value with human plasma proteases [4] was “No obvious degradation products”. Also, the share remaining at 8 h, 0.1 mg/mL in the data set on human plasma proteases [5] is > 90%. Further, the fraction remaining at 24 h, 0.1 mg/mL in the data set with human plasma proteases [5] is > 60%.

`CC(C)C[C@H](NC(=O)[C@H](Cc1ccc(O)cc1)NC(=O)[C@H](CCCCN)NC(=O)[C@H](CC(C)C)NC(=O)[C@H](CC(C)C)NC(=O)[C@H](CCCCN)NC(=O)[C@H](CCCCN)NC(=O)[C@H](Cc1ccccc1)NC(=O)[C@H](CC(C)C)NC(=O)[C@H](CCCNC(=N)N)NC(=O)C(C)(C)N)C(=O)N[C@@H](CCCNC(=N)N)C(=O)N[C@@H](CCCCN)C(=O)N[C@@H](Cc1cccs1)C(N)=O` [UP09] (H-[Aib]RLFKKLLKYLRK[2Thi]-NH2; N-terminus assumed): the “[θ]222” value was “–1842.7 deg⋅cm^2⋅dmol^–1” in data set [6] (10 mM PB buffer pH 7.4), “–4643.3 deg⋅cm^2⋅dmol^–1” in data set [6] (25 mM SDS in PB), “–11064.1 deg⋅cm^2⋅dmol^–1” in data set [6] (0.1% LPS in PB) and “–11436.9 deg⋅cm^2⋅dmol^–1” in data set [6] (50% TFE/PB). For the same molecule, the “%α-helix” value is “rc” in data set [6] (10 mM PB buffer pH 7.4, rc = random coil); 8.8% in data set [6] (25 mM SDS in PB, rc = random coil); 30.2% in data set [6] (0.1% LPS in PB); 31.5% in data set [6] (50% TFE/PB, rc = random coil). The “Hemolysis rate (%)” value was 55.99 ± 3.75 % in the data set with human erythrocytes (64 μM) and 95.99 ± 2.10 % in the data set on human erythrocytes (128 μM). The survival rate in the data set with P. aeruginosa ATCC 9027 (after 3 d) was determined as 40%; in the data set on P. aeruginosa ATCC 9027 (after 7 d) it was 10%. Further, in the data set on human plasma proteases [5], the share remaining at 12 h, 0.1 mg/mL is > 50%. In the data set with human plasma proteases [5], the share remaining at 24 h, 0.1 mg/mL is > 30%.

The values above are taken from paper PMC7688903 (Frontiers in Microbiology, 2020).
